# In article PMC12748989 (Nature Communications, 2025):
# What was measured:
# [1] = test system: MDA-MB-231 cells
# [2] = test system: PBMC; settings: 12.5 µM
Structure (SMILES),"Average (percentage cell inhibition), Dmastoparan MDA-MB231 12.5uM [1]","Average (percentage cell inhibition), Mastoparan PBMC [2]"
CC[C@H](C)[C@H](N)C(=O)N[C@@H](CC(N)=O)C(=O)N[C@@H](CC(C)C)C(=O)N[C@@H](CCCCN)C(=O)N[C@@H](C)C(=O)N[C@@H](CC(C)C)C(=O)N[C@@H](C)C(=O)N[C@@H](C)C(=O)N[C@@H](CC(N)=O)C(=O)N[C@@H](C)C(=O)N[C@@H](CCCCN)C(=O)N[C@@H](CCCCN)C(=O)N[C@H](C(=O)N[C@@H](CC(C)C)C(N)=O)[C@@H](C)CC [N9],3.242%,3.083%
CC[C@H](C)[C@H](N)C(=O)N[C@@H](CC(N)=O)C(=O)N[C@@H](CC(C)C)C(=O)N[C@@H](CCCCN)C(=O)N[C@@H](C)C(=O)N[C@@H](CC(C)C)C(=O)N[C@@H](C)C(=O)N[C@@H](C)C(=O)N[C@@H](CC(C)C)C(=O)N[C@@H](CC(N)=O)C(=O)N[C@@H](CCCCN)C(=O)N[C@@H](CCCCN)C(=O)N[C@H](C(=O)N[C@@H](CC(C)C)C(N)=O)[C@@H](C)CC [N10],9.754%,1.8653%
CC[C@H](C)[C@H](N)C(=O)N[C@@H](CC(N)=O)C(=O)N[C@@H](CC(C)C)C(=O)N[C@@H](CCCCN)C(=O)N[C@@H](C)C(=O)N[C@@H](CC(C)C)C(=O)N[C@@H](C)C(=O)N[C@@H](C)C(=O)N[C@@H](CC(C)C)C(=O)N[C@@H](C)C(=O)N[C@@H](CC(N)=O)C(=O)N[C@@H](CCCCN)C(=O)N[C@H](C(=O)N[C@@H](CC(C)C)C(N)=O)[C@@H](C)CC [N11],40.5108%,4.624%
CC[C@H](C)[C@H](N)C(=O)N[C@@H](CC(N)=O)C(=O)N[C@@H](CC(C)C)C(=O)N[C@@H](CCCCN)C(=O)N[C@@H](C)C(=O)N[C@@H](CC(C)C)C(=O)N[C@@H](C)C(=O)N[C@@H](C)C(=O)N[C@@H](CC(C)C)C(=O)N[C@@H](C)C(=O)N[C@@H](CCCCN)C(=O)N[C@@H](CC(N)=O)C(=O)N[C@H](C(=O)N[C@@H](CC(C)C)C(N)=O)[C@@H](C)CC [N12],52.6491%,5.917%
CC[C@H](C)[C@H](N)C(=O)N[C@@H](CC(N)=O)C(=O)N[C@@H](CC(C)C)C(=O)N[C@@H](CCCCN)C(=O)N[C@@H](C)C(=O)N[C@@H](CC(C)C)C(=O)N[C@@H](C)C(=O)N[C@@H](C)C(=O)N[C@@H](CC(C)C)C(=O)N[C@@H](C)C(=O)N[C@@H](CCCCN)C(=O)N[C@@H](CCCCN)C(=O)N[C@@H](CC(N)=O)C(=O)N[C@@H](CC(C)C)C(N)=O [N13],29.0846%,7.072%
CC[C@H](C)[C@H](N)C(=O)N[C@@H](CC(N)=O)C(=O)N[C@@H](CC(C)C)C(=O)N[C@@H](CCCCN)C(=O)N[C@@H](C)C(=O)N[C@@H](CC(C)C)C(=O)N[C@@H](C)C(=O)N[C@@H](C)C(=O)N[C@@H](CC(C)C)C(=O)N[C@@H](C)C(=O)N[C@@H](CCCCN)C(=O)N[C@@H](CCCCN)C(=O)N[C@H](C(=O)N[C@@H](CC(N)=O)C(N)=O)[C@@H](C)CC [N14],-1.851%,9.15%
CC[C@H](C)[C@H](NC(=O)[C@H](CCCCN)NC(=O)[C@H](CCCCN)NC(=O)[C@H](C)NC(=O)[C@H](CC(C)C)NC(=O)[C@H](C)NC(=O)[C@H](C)NC(=O)[C@H](CC(C)C)NC(=O)[C@H](C)NC(=O)[C@H](CCCCN)NC(=O)[C@H](CC(C)C)NC(=O)[C@H](CC(N)=O)NC(=O)[C@@H]1CCCN1)C(=O)N[C@@H](CC(C)C)C(N)=O [P1],43.0723%,-0.6303%
CC[C@H](C)[C@H](N)C(=O)N1CCC[C@H]1C(=O)N[C@@H](CC(C)C)C(=O)N[C@@H](CCCCN)C(=O)N[C@@H](C)C(=O)N[C@@H](CC(C)C)C(=O)N[C@@H](C)C(=O)N[C@@H](C)C(=O)N[C@@H](CC(C)C)C(=O)N[C@@H](C)C(=O)N[C@@H](CCCCN)C(=O)N[C@@H](CCCCN)C(=O)N[C@H](C(=O)N[C@@H](CC(C)C)C(N)=O)[C@@H](C)CC [P2],36.9174%,-4.49%
CC[C@H](C)[C@H](N)C(=O)N[C@@H](CC(N)=O)C(=O)N1CCC[C@H]1C(=O)N[C@@H](CCCCN)C(=O)N[C@@H](C)C(=O)N[C@@H](CC(C)C)C(=O)N[C@@H](C)C(=O)N[C@@H](C)C(=O)N[C@@H](CC(C)C)C(=O)N[C@@H](C)C(=O)N[C@@H](CCCCN)C(=O)N[C@@H](CCCCN)C(=O)N[C@H](C(=O)N[C@@H](CC(C)C)C(N)=O)[C@@H](C)CC [P3],17.7289%,-5.207%
CC[C@H](C)[C@H](N)C(=O)N[C@@H](CC(N)=O)C(=O)N[C@@H](CC(C)C)C(=O)N1CCC[C@H]1C(=O)N[C@@H](C)C(=O)N[C@@H](CC(C)C)C(=O)N[C@@H](C)C(=O)N[C@@H](C)C(=O)N[C@@H](CC(C)C)C(=O)N[C@@H](C)C(=O)N[C@@H](CCCCN)C(=O)N[C@@H](CCCCN)C(=O)N[C@H](C(=O)N[C@@H](CC(C)C)C(N)=O)[C@@H](C)CC [P4],10.9719%,-6.014%
CC[C@H](C)[C@H](N)C(=O)N[C@@H](CC(N)=O)C(=O)N[C@@H](CC(C)C)C(=O)N[C@@H](CCCCN)C(=O)N1CCC[C@H]1C(=O)N[C@@H](CC(C)C)C(=O)N[C@@H](C)C(=O)N[C@@H](C)C(=O)N[C@@H](CC(C)C)C(=O)N[C@@H](C)C(=O)N[C@@H](CCCCN)C(=O)N[C@@H](CCCCN)C(=O)N[C@H](C(=O)N[C@@H](CC(C)C)C(N)=O)[C@@H](C)CC [P5],25.1894%,0.2776%
CC[C@H](C)[C@H](N)C(=O)N[C@@H](CC(N)=O)C(=O)N[C@@H](CC(C)C)C(=O)N[C@@H](CCCCN)C(=O)N[C@@H](C)C(=O)N1CCC[C@H]1C(=O)N[C@@H](C)C(=O)N[C@@H](C)C(=O)N[C@@H](CC(C)C)C(=O)N[C@@H](C)C(=O)N[C@@H](CCCCN)C(=O)N[C@@H](CCCCN)C(=O)N[C@H](C(=O)N[C@@H](CC(C)C)C(N)=O)[C@@H](C)CC [P6],-16.4349%,-8.854%
CC[C@H](C)[C@H](N)C(=O)N[C@@H](CC(N)=O)C(=O)N[C@@H](CC(C)C)C(=O)N[C@@H](CCCCN)C(=O)N[C@@H](C)C(=O)N[C@@H](CC(C)C)C(=O)N1CCC[C@H]1C(=O)N[C@@H](C)C(=O)N[C@@H](CC(C)C)C(=O)N[C@@H](C)C(=O)N[C@@H](CCCCN)C(=O)N[C@@H](CCCCN)C(=O)N[C@H](C(=O)N[C@@H](CC(C)C)C(N)=O)[C@@H](C)CC [P7],-0.6456%,-9.322%
